{"source": "a melting point compilation (Tetko et al.; mined from patent text by program, amines drawn as free bases though some values may be those of a salt)", "data": [{"units": {"melting point": "°C"}, "values": [{"smiles": "Cc1nc2c(OCc3c(Cl)ccc(N(C)C(=O)CN4C(=O)c5ccccc5C4=O)c3Cl)cccn2c1Br", "melting point": "229 to 230"}, {"smiles": "Nc1cccc(N)c1Oc1ccccc1", "melting point": "110 to 111"}, {"smiles": "CCN(CC)CCN1CCN(c2ccc(N3C[C@H](CNC(C)=O)OC3=O)cc2F)CC1", "melting point": "131 to 133"}, {"smiles": "Cc1cccc(C(=O)Nc2ccc(S(N)(=O)=O)cc2)c1SSc1c(C)cccc1C(=O)Nc1ccc(S(N)(=O)=O)cc1", "melting point": "308 to 309"}, {"smiles": "Cc1ccc2[nH]ncc2c1OCc1ccccc1", "melting point": "94 to 95"}, {"smiles": "N#CCS(=O)(=O)c1ccc([N+](=O)[O-])cc1", "melting point": "166 to 168"}, {"smiles": "CCC(O)c1ccc(-c2cccc(COc3ccc(CO)c(CO)c3)c2)c(C)c1", "note": "(stereo not given)", "melting point": 78}, {"smiles": "COc1cc(OCCOc2ccccc2)c2c(=O)[nH]c(-c3cc(C)nc(C)c3)nc2c1", "melting point": "172 to 173"}, {"smiles": "Cc1ccc(Sc2c(N)cc(C(=O)O)cc2SCc2ccccc2)cc1", "melting point": "177 to 179"}, {"smiles": "Cc1nc(-c2cccc(Cl)c2)c2cc(C(=O)c3ccc(Cl)cc3)ccc2n1", "melting point": 182}, {"smiles": "O=c1[nH]c2ccsc2c(=O)n1CCN1CCN(c2ccccc2)CC1", "melting point": "215 to 217"}, {"smiles": "O=C(O)C1=Cc2cc(Cl)cc(C#CCCCCl)c2OC1C(F)(F)F", "note": "(stereo not given)", "melting point": "154 to 156"}, {"smiles": "N#Cc1ncc(NCCO)nc1N1CCN(c2ccc(F)cc2)CC1", "melting point": "149 to 151"}, {"smiles": "COc1ccc2c(c1F)C(=O)N(Nc1ccncc1)C2=O", "melting point": "206 to 210"}, {"smiles": "N#Cc1ccc(CC23CCCN2C(=O)N(c2cc(Cl)cc(-n4cccc4C=O)c2)C3=O)cc1", "note": "(stereo not given)", "melting point": 110}, {"smiles": "Nc1ccc(S(=O)(=O)c2ccnc(N3CCCC3)c2)cc1", "melting point": "186 to 187"}, {"smiles": "CN(C)C1(c2ccccc2)CCC(C(=O)c2cc3ccccc3n2C)(N2CCCC2)CC1", "note": "(stereo not given)", "melting point": "212 to 218"}, {"smiles": "CNC(=O)c1ccc(F)c(Cl)c1", "melting point": "108 to 110"}, {"smiles": "CC(C)(C)OC(=O)Nc1ccccc1NC(=O)c1ccc(C(=O)Nc2cccc(Nc3nc(-c4cccnc4)cs3)c2)cn1", "melting point": "220 to 222"}, {"smiles": "Cc1ccc(C2c3c(C)c(N4C(=O)c5ccccc5C4=O)c(C)c(C)c3OC2(C)C)cc1", "note": "(stereo not given)", "melting point": "222 to 224"}, {"smiles": "CCCCNS(=O)(=O)CC(O)C(O)C(CC1CCCCC1)NC(=O)c1ccnnc1", "note": "(stereo not given)", "melting point": "170 to 172"}, {"smiles": "CC(=O)COc1ccc(Cc2ccccc2)cc1", "melting point": "51 to 52"}, {"smiles": "COc1ccc(NC(=O)CCCC(O)c2ccc(OC)cc2)cc1", "note": "(stereo not given)", "melting point": "118 to 120"}, {"smiles": "C[C@@H]1N=C(c2ccccc2)c2cc(C#CCCCC(=O)O)ccc2N(C)C1=O", "melting point": "62 to 63"}, {"smiles": "CCCn1ncnc1COc1nn2c(-c3ccccc3)nnc2cc1-c1ccccc1", "melting point": "211 to 213"}, {"smiles": "O=[N+]([O-])C1NC=CN1c1ccncc1", "note": "(stereo not given)", "melting point": 234}, {"smiles": "CC(=O)OCC(OC(C)=O)C1OC(OC(C)=O)(C(=O)O)CC(OC(C)=O)C1OC(C)=O", "note": "(stereo not given)", "melting point": "132 to 133"}, {"smiles": "COc1cc(S(=O)(=O)c2ccccc2)ccc1N", "melting point": "149 to 150"}, {"smiles": "Cn1nc(-c2ccccc2)c(Oc2ccc([N+](=O)[O-])cc2)c1-c1ccccc1", "melting point": "85 to 110"}, {"smiles": "O=C(O)Cc1c(C(=O)c2cc3c(cn2)CCCC3)[nH]c2cc(Cl)ccc12", "melting point": 225}, {"smiles": "CCOc1ccc(Cl)cc1C(N)=O", "melting point": "136 to 139"}, {"smiles": "Cc1cc(CN2CCN(c3ccc(C(=O)NC4CC4)cc3F)CC2)cc2c1OC(C)C(=O)N2", "note": "(stereo not given)", "melting point": 253}, {"smiles": "CCOC(=O)c1cnc(N2CCC[C@H]2CO)nc1NCc1ccc(OC)c(Cl)c1", "melting point": "88 to 90"}, {"smiles": "Cc1cc(-c2ccc3c(C(N)=O)nn(-c4ccc(S(N)(=O)=O)cc4)c3c2)ccc1F", "melting point": "300 to 302"}, {"smiles": "COCc1c(N2CCN(C)CC2)c(F)cc2c(=O)c(C(=O)OC)cn(C3CC3)c12", "melting point": "200 to 204"}, {"smiles": "CC1c2cccn2-c2ccc(Br)cc2N1S(=O)(=O)c1ccc(O)cc1", "note": "(stereo not given)", "melting point": "204 to 206"}, {"smiles": "O=[N+]([O-])c1ccccc1Sc1ccc(Cl)cc1", "melting point": "91 to 93"}, {"smiles": "C=CC(=O)OCCNC(=O)CCc1cc(-n2nc3ccccc3n2)c(O)c(C(C)(C)C)c1", "melting point": "80 to 83"}, {"smiles": "COc1cc2cc(C(=O)N3CC(COS(C)(=O)=O)c4c3cc(N)c3ccccc43)[nH]c2c(OC)c1OC", "note": "(stereo not given)", "melting point": "> 260"}, {"smiles": "Cc1ccc(S(=O)(=O)C2(CCCC#Cc3cccnc3)SC(=O)NC2=O)cc1", "note": "(stereo not given)", "melting point": "173 to 176"}, {"smiles": "CCOC(=O)c1cc2c(C)ccc3c2n1CCC3", "melting point": "51 to 52"}, {"smiles": "O=C(O)Cc1cc2c3ccccc3[nH]c(=O)n2n1", "melting point": "253 to 254"}, {"smiles": "CCOc1ccc2c(c1)CCC(Oc1ncnc3ccccc13)C2", "note": "(stereo not given)", "melting point": "115 to 117"}, {"smiles": "CC(C)C(OCc1ccc(Cl)cc1)c1cncnc1", "note": "(stereo not given)", "melting point": "33 to 35"}, {"smiles": "Cn1cncc1C(O)(c1ccc(Cl)cc1)c1ccc2nc(NN)nc(-c3cccc(Cl)c3)c2c1", "note": "(stereo not given)", "melting point": 186}, {"smiles": "C#CCn1c(=O)cc(-c2ccccc2)c2cccnc21", "melting point": "127 to 129"}, {"smiles": "O=c1cccc(-c2ccccc2)[nH]1", "melting point": 200}, {"smiles": "COC(=O)c1cnc(N)cn1", "melting point": "229 to 231"}, {"smiles": "Cc1cc(C)cc(C(=O)Cc2ccnc(N)c2)c1", "melting point": "123 to 126"}, {"smiles": "CCCc1nn(C)c2c(=O)[nH]c(-c3cc(CCC(=O)O)ccc3OCC)nc12", "melting point": "165 to 167"}, {"smiles": "CCCCOc1c(CNC(=O)OC(C)(C)C)n(CC(C)C)c(=O)c2ccc(C(=O)OC)cc12", "melting point": "148 to 149"}, {"smiles": "COCCn1cc(-c2ccccc2)n(C(=O)c2ccccc2)c1=O", "melting point": "112 to 117"}, {"smiles": "O=c1c(N2CCNCC2)nc2ccccc2n1-c1cccc(F)c1", "melting point": "149 to 150"}, {"smiles": "CC(C)=CCC/C(C)=C/Cn1c(CO)nc2ccccc21", "melting point": "120 to 123"}, {"smiles": "CC(Cc1ccc(Cl)cc1Cl)NC(=O)c1cn(C)nc1C(F)F", "note": "(stereo not given)", "melting point": 157}, {"smiles": "CC(C)(C)OC(=O)N1CCC(NC(=O)c2ccc(-n3cccn3)cc2)C1", "note": "(stereo not given)", "melting point": "263 to 264"}, {"smiles": "C1=C(c2c[nH]c3ncccc23)CCN(CCOc2cccc3ncccc23)C1", "melting point": "202 to 205"}, {"smiles": "CC(C)C1OC(=Nc2nccs2)c2c1nc1c(C(F)(F)F)cccc1c2O", "note": "(stereo not given)", "melting point": "246 to 248"}, {"smiles": "CC12CCC3C(CCC4C(=O)CCCC43C)C1CCC2OC1CCCCO1", "note": "(stereo not given)", "melting point": "123 to 126"}, {"smiles": "CCC(=O)N(C(=O)CC)c1cc2c(cc1C)N(C(=O)CC)c1ccc(N(C)C)cc1N2C(=O)CC", "melting point": "198 to 199"}, {"smiles": "CCOc1ccc(OCc2ccccc2OCc2nc(-c3ccccc3)oc2C)cc1CCC(=O)O", "melting point": "146 to 147"}, {"smiles": "CC(=O)NC1(Cc2ccccc2)CCN(Cc2ccccc2)CC1", "melting point": 134}, {"smiles": "Cn1c(=O)c2[nH]c(C=Cc3cccc(N)c3)nc2n(C)c1=O", "melting point": "> 300"}, {"smiles": "N#Cc1cn(-c2ccc(Cl)cc2)c(=O)[nH]c1=O", "melting point": "236 to 239"}, {"smiles": "CCC(CC)C(=O)Nc1ccco1", "melting point": 100}, {"smiles": "O=C(NCCN1CCN(c2cccc3c2OCC(CO)O3)CC1)c1ccc(F)cc1", "note": "(stereo not given)", "melting point": "183 to 185"}, {"smiles": "CC1NC(=O)NN=C1c1ccc(NC(=O)Nc2ccccc2)cc1", "note": "(stereo not given)", "melting point": "> 140"}, {"smiles": "CN1CCC[C@H]1Cc1cc2cccnc2[nH]1", "melting point": "130 to 131"}, {"smiles": "COc1cc(OCc2ccccn2)ccc1/C=C/c1cc(/C=C/c2cccc3ncccc23)[nH]n1", "melting point": "107 to 120"}, {"smiles": "CCCCCc1ccc(-c2ccc(CCC3(C#N)CCCC(C)C3)cc2)cc1", "note": "(stereo not given)", "melting point": 73}, {"smiles": "CCOC(=O)c1cc2cccc(N(C)S(=O)(=O)c3ccccc3OC)c2n1COC", "melting point": "124 to 125"}, {"smiles": "Cc1ccc(S(=O)(=O)n2c(I)cc3cc(F)cnc32)cc1", "melting point": 158}, {"smiles": "OC(CCc1ccc(OCc2ccccc2)c(OCc2ccccc2)c1)C1CCCCC1", "note": "(stereo not given)", "melting point": "107 to 108"}, {"smiles": "CS(=O)(=O)Cc1cnc2ccsc2c1O", "melting point": "> 300"}, {"smiles": "C=CCCC(O)=C(C#N)C(=O)Nc1ccc(C(F)(F)F)c(C)c1", "melting point": 133}, {"smiles": "Cc1ccc(C(=O)OC2CCN(Cc3cccc(N)c3)CC2)cc1", "melting point": "100 to 102"}, {"smiles": "CS(=O)(=O)c1ccc(Oc2ccc(Cl)c(Cl)c2)c(Cl)c1", "melting point": "102 to 104"}, {"smiles": "Cc1cccc(OC(=O)C(=O)Oc2cccc(C)c2)c1", "melting point": "101 to 103"}, {"smiles": "CC1(C)CC(OC(=O)c2ccccc2)CC(C)(C)N1CC#N", "melting point": 147}, {"smiles": "CC1=NS(=O)(=O)N(Cc2ccncc2)C=C1", "melting point": "100 to 101"}, {"smiles": "CCCC(=O)c1cnc2c(OC)cccc2c1Nc1ccc(OC)cc1C", "melting point": "161 to 163"}, {"smiles": "Cc1oc(C(C)(C)C)nc1CCOc1ccc(CC(OC(C)C)C(=O)O)c2sccc12", "note": "(stereo not given)", "melting point": "159 to 160"}, {"smiles": "CN1CCC(c2c(O)cc(O)c3c(=O)cc(-c4ccccc4Cl)oc23)C1CS", "note": "(stereo not given)", "melting point": "205 to 206"}, {"smiles": "CN1CC(C(Oc2ccccc2N)c2ccccc2)OCC1=O", "note": "(stereo not given)", "melting point": "167 to 170"}, {"smiles": "N#CC(C(=O)c1ccncc1)c1ccc(F)cc1", "note": "(stereo not given)", "melting point": "230 to 232"}, {"smiles": "CCCc1nn(C)c2c(=O)[nH]c(-c3cc(-n4ccnc4)ccc3OCC)nc12", "melting point": "193 to 194"}, {"smiles": "O=C(NO)c1ccc(OC(=O)C2(c3ccc(OC(=O)c4ccccc4)cc3)CCCCC2)cc1", "melting point": "114 to 115"}, {"smiles": "CC(C)(C)NS(=O)(=O)c1c(CCl)nc2ccccn12", "melting point": "180 to 182"}, {"smiles": "CNC(=O)NS(=O)(=O)c1ccccc1CCC(F)(F)F", "melting point": "176 to 177"}, {"smiles": "CC(C)(C)OC(=O)N1CCc2cc(OCc3ccccc3)c(OCc3ccccc3)cc2C1Cc1ccc(NC(=O)c2ccccc2)c(I)c1", "note": "(stereo not given)", "melting point": "151 to 153"}, {"smiles": "COc1cc(OC)cc(N2CCN(C(=O)[C@](C)(C#N)[C@H](c3ccccc3OC)c3cccc4ccccc34)CC2)c1", "melting point": "186 to 188"}, {"smiles": "CSC(Nc1ccc2c(c1)OCO2)=C(C#N)S(C)(=O)=O", "melting point": "168 to 170"}, {"smiles": "Cc1ccnc(C(O)c2ccc(N)cc2C(F)(F)F)c1", "note": "(stereo not given)", "melting point": "120 to 123"}, {"smiles": "CCOC(=O)c1cn(CC)c2ncncc2c1=O", "melting point": 136}, {"smiles": "CCCCC(F)c1nc[nH]c(=O)c1Cl", "note": "(stereo not given)", "melting point": "157 to 160"}, {"smiles": "O=C(O)C1=CC(CF)(CF)Oc2ccc(C(F)(F)F)cc21", "melting point": "159 to 161"}, {"smiles": "CCOCc1nc2c(N)nc3cc(OCc4ccccc4)ccc3c2n1CCCCN1CCCS1(=O)=O", "melting point": "225 to 227"}, {"smiles": "Nc1ccc(CO)c(Nc2nccc(-c3cccnc3)n2)c1", "melting point": "213 to 215"}, {"smiles": "CCOC(=O)c1cncc(C(=O)O)c1", "melting point": "180 to 182"}, {"smiles": "OCC(O)COC(c1ccccc1)(c1ccccc1)c1ccccc1", "note": "(stereo not given)", "melting point": "108 to 110"}]}]}
